Laboratory results from patent US7985889B2, “AtMIN7 mediated disease resistance to Pseudomonas syringae in Arabidopsis” (priority 2007, dated 2011).

Legend:
Assay in all cases: Brefeldin A treatment of bacteria-infiltrated detached Arabidopsis leaves: bacterial multiplication and disease symptoms
Format in all cases: in vivo
hrcC mutant = conditions: Col-0 gl1 plants treated with water or BFA
Description: (§1) A standard enumeration procedure involves pathogen inoculation, using any one of described methods, supra, followed by assaying bacterial populations present within host tissues at regular intervals. The population present within the tissue was calculated based on the dilution factor divided by the amount of tissue present in each sample. Plotting log (culturable bacterial number/cm^2 leaf tissue) against time (usually in days) after pathogen inoculation produced an unfitted curve, i.e. growth curve. For a review of methods, see, Katagiri et al., in The Arabidopsis Book, Somerville, Meyerowitz, Eds. (American Society of Plant Biologists, Rockville, Md., 2002), website://dx.doi.org/10.1199/tab.0039; herein incorporated by reference.
(§2) Leaves were harvested and surface sterilized as follows: 1) whole leaves were removed from a host plant and gently mixed in a 70% ethanol solution for 1 minute. Leaves were blotted briefly on paper towels then rinsed in sterile distilled water for 1 minute, then blotted dry on paper towels. Leaf disks were excised from leaves with a 0.5 cm^2 or smaller cork borer, depending on the size of the sample leaves; 2) leaf disks from the leaves of 2 or more independent replicate plants were pooled for a single tissue sample and placed in a 1.5-mL microfuge tube with 100 μL sterile distilled water, the amount of leaf tissue per tube was recorded as leaf surface area. Three or more samples were harvested for each time point. Steps 1 and 2 were repeated for each sample; 3) Tissue samples were ground with a microfuge tube plastic pestle, by hand or by using a small hand-held electric drill. […] The number of serial dilutions necessary to get countable colonies were determined for each sample, however dilutions to 10^−7 were usually sufficient for any bacterial strain; 7) The samples were plated on the appropriate medium (e.g., Low salt Luria Bertani) supplemented with the necessary antibiotics to select for the specific inoculated bacterial strain. Plating was done in the traditional way (100 μL of a single sample was spread on a single plate) or several 10 μL aliquots of the 1:10 serial dilutions were spotted on to a single plate and allowed to dry onto the surface; and 8) Plates were placed at 30° C. for approximately 2 days with a cfu value determined for each dilution of each sample. […]
(§3) Leaves were infiltrated with 1×10^6 cfu/ml of bacteria, detached, and placed in microtiter wells with petioles immersed in the 36 μM BFA (Sigma Co.) solution. […] Bacterial populations and disease symptoms were determined on day 0 and day three.

Pst DC3000 ΔCEL mutant = tested on: Pst DC3000 ΔCEL mutant
Description: as §1, §2, §3

Pst DC3000 = conditions: Col-0 gl1 plants treated with water or BFA
Description: as §1, §2, §3

C[C@H]1CCC/C=C/[C@@H]2C[C@H](O)C[C@H]2[C@H](O)/C=C/C(=O)O1 [BFA, Brefeldin A]
multiplication or disease symptoms caused by the hrcC mutant (hrcC mutant): no significant differences | virulence (both multiplication and disease symptoms) of the Pst DC3000 ΔCEL mutant (Pst DC3000 ΔCEL mutant; 36 μM BFA, wild-type Col-0 gl1 leaves infiltrated with 1×10^6 cfu/ml, day three, vs water): significantly enhanced | restoration of the virulence of the Pst DC3000 ΔCEL mutant, BFA-treated leaves compared with AtMIN7 KO plants (Pst DC3000 ΔCEL mutant; BFA-treated leaves): greater than that in the AtMIN7 KO plants | multiplication or disease symptoms caused by Pst DC3000 (Pst DC3000): no significant differences
